Here are results for 7 compounds from article PMC6120236 (FEBS Open Bio, 2018).

The structures appear in SMILES notation. Where two headings read alike, the source gives them in different places.

In experiment [1] the target is T1, WT ITK (His6-tagged human wild-type ITK kinase domain) (Homo sapiens, UniProt Q08881).
T1 construct: Ni-NTA, Q Sepharose, Superdex 200
T1 sequence (Q08881 357-620 limits assumed): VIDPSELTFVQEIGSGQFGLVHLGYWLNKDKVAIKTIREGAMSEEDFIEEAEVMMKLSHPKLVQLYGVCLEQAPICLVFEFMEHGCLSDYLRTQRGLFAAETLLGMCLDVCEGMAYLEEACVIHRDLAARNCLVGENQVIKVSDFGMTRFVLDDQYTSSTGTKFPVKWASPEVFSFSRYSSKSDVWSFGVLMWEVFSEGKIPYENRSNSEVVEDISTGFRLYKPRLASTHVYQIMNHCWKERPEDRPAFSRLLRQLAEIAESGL
Description: ADP-Glo kinase assay. In kind it is biochemical. From the text:
ADP-Glo kinase assay on WT ITK (His6-tagged human wild-type ITK kinase domain)
A general note: ADP-Glo first removes unused ATP, then detects ADP through luciferase.

The target in experiment [2] is T1, WT ITK (His6-tagged human wild-type ITK kinase domain). In words: SPR (Biacore, NTA capture coupling). Type of experiment: binding. In general terms: Surface plasmon resonance follows binding to a sensor surface in real time, without labels.
Experiment [3] has the same target. In words: biochemical kinase inhibition assay.
Experiment [4] addresses CLK1 (Homo sapiens, UniProt P49759). In words: DiscoveRx KINOMEscan. The settings on record: read-out: Percentage of control binding / J-31. From the text:
DiscoveRx KINOMEscan on CLK1

In experiment [5] the target is LCK (Homo sapiens, UniProt P06239). In words: DiscoveRx KINOMEscan. The settings on record: read-out: Percentage of control binding / J-95. From the text: DiscoveRx KINOMEscan on LCK
Experiment [6] has as its target HCK (Homo sapiens, UniProt P08631). Description: DiscoveRx KINOMEscan. The settings on record: read-out: Percentage of control binding / J-95. From the text: DiscoveRx KINOMEscan on HCK

Sequence of HCK (P08631 2-526): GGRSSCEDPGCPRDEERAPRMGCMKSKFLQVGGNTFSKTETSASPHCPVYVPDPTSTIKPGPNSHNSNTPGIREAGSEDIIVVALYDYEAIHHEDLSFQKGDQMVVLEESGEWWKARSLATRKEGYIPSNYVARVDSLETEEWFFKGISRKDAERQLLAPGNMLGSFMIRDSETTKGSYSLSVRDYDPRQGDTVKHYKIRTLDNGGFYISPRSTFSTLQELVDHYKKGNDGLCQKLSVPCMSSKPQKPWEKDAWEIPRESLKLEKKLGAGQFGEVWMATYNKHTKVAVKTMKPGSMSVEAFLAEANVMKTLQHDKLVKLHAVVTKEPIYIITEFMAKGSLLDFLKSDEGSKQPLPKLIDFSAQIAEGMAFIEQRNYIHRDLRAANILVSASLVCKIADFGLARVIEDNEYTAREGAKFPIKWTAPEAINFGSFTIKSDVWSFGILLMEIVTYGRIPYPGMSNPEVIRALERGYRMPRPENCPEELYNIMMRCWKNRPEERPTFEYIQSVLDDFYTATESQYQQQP
Sequence of LCK (P06239 2-509): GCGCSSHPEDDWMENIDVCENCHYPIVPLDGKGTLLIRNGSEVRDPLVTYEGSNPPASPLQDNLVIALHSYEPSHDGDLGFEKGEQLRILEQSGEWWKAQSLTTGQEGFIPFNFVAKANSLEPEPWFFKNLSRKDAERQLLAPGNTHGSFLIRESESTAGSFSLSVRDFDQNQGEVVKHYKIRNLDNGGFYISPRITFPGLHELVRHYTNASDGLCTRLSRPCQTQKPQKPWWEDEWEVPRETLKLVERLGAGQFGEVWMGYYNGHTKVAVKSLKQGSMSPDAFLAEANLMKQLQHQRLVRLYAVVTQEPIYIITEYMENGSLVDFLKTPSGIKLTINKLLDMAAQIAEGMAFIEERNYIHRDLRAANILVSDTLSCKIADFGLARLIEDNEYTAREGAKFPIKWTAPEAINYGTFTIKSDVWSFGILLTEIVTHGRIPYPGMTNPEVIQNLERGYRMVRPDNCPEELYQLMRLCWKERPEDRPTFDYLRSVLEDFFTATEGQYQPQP
Sequence of CLK1 (P49759 whole entry): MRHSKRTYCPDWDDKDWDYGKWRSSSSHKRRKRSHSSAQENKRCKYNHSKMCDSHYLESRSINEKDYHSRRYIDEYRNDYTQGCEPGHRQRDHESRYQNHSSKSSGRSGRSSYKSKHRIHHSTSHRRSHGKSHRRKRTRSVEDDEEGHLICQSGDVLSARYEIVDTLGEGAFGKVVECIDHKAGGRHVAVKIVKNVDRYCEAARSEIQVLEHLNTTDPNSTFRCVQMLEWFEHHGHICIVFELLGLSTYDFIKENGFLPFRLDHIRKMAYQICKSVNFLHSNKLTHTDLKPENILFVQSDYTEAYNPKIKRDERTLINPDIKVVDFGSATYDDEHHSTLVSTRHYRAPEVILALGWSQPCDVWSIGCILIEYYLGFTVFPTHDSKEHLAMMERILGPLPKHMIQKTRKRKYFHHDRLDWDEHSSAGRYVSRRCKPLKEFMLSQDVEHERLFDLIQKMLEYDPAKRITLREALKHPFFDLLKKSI

In the case of `COc1cc(C)c(Sc2cnc(NC(=O)c3ccc(CNC(C)C(C)(C)C)cc3)s2)cc1C(=O)N1CCN(C(C)=O)CC1` (centres unmarked) [A, BMS-509744], in experiment [1], the 50% inhibitory concentration (IC50) is 2.5 nM. In experiment [2] (read-out: K D), the Kd is 1.3 nM.

In experiment [1], `COc1cc(C)c(Sc2cnc(NC(C)=O)s2)cc1C(=O)N1CCN(C(C)=O)CC1` [B, Derivative of A] registered an IC50 of 260 nM. The Kd in experiment [2] (read-out: K D) was 75 nM.

On to `CC(C)Oc1ccc2cccc(-n3cc(NC(N)=O)c(C(N)=O)n3)c2c1` [C, Pfizer compound 9], for which the IC50 in experiment [1] was found to be 24 nM. In experiment [2] (read-out: K D), the Kd amounted to 25 nM.

`CC(=O)N1CCCC(n2nc(-c3cccc(C(=O)Nc4ccc(C(C)C)cc4)c3)c3c(N)ncnc32)C1` (centres unmarked) [E, Derivative of D]: inhibition in experiment [1] was half-maximal at 460 nM (IC50). Besides, the Kd in experiment [2] (read-out: K D) was found to be 1100 nM.

With `CCc1ccc2nc(Nc3cc(Cc4ccccc4)nc(N[C@H]4CC[C@H](O)CC4)n3)sc2c1` [G, GSK compound 13], in experiment [1], the IC50 was found to be 3.5 nM. Further, in experiment [2] (read-out: K D), the Kd came out at 3.6 nM.

On to `COc1ccc(OCCn2c(NC(=O)c3ccco3)nc3ccccc32)cc1` [J-31], for which the 50% inhibitory concentration (IC50) in experiment [3] was 5500 nM. For the same compound, the Kd in experiment [2] was 3400 nM. Further, the remaining binding at 50 µM in experiment [4] is 21%.

Consider `CCOC(=O)/C=C1\CC(=O)Nc2cc(C)c(C)cc2N1` [J-95], for which the results for the remaining binding at 20 µM in experiment [5] and in experiment [6] were 29% and 33%, respectively. In experiment [3], this compound came in with a half-maximal inhibitory concentration (IC50) of 3300 nM. For the same compound, in experiment [2], the Kd stood at 1000 nM.

As a reminder, the IC50 is the concentration at which inhibition is half-maximal. Read a high IC50 as weaker potency in that assay.
